In the test the target is human β-Secretase (Homo sapiens (Human), UniProt P56817). Kind of test: TR-FRET assay. The test is classed as biochemical. As to conditions: sBACE-Fc, substrate (Europium)CEVNLDAEFK(Qsy7) 100 nM, pH4.5, 15 minutes at r.t. As for the experimental part:
The β-secretase enzyme used in the TR-FRET is prepared as follows: The cDNA for the soluble part of the human β-Secretase (AA 1-AA 460) was cloned using the ASP2-Fc10-1-IRES-GFP-neoK mammalian expression vector. The gene was fused to the Fc domain of IgG1 (affinity tag) and stably cloned into HEK 293 cells.
The robotic systems Biomek FX and Velocity 11 were used for all liquid handling and the enzyme and substrate solutions were kept on ice until they were placed in the robotic system. Enzyme (9 μl) was added to the plate then 1 μl of compound in dimethylsulphoxide was added, mixed and pre-incubated for 10 minutes. Substrate (10 μl) was then added, mixed and the reaction proceeded for 15 minutes at r.t. The reaction was stopped with the addition of Stop solution (7 μl, NaAcetate, pH 9). […] The dimethylsulphoxide control, instead of test compound, defined the 100% activity level and 0% activity was defined by wells lacking enzyme (replaced with reaction buffer).
Chain of human β-Secretase (P56817 22-460): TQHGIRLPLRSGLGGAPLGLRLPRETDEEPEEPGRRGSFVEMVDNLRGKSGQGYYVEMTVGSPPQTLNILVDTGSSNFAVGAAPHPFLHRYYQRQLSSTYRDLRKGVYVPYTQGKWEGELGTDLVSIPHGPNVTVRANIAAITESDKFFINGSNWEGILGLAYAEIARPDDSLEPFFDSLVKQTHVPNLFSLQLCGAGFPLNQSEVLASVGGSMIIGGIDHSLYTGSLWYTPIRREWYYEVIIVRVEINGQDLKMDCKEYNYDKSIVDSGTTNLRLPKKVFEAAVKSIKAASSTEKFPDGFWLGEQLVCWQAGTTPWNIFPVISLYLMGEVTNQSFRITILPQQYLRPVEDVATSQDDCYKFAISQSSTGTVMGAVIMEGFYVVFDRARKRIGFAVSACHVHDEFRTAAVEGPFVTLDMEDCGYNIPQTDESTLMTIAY
For the compound `CC1=NC2(CC(C3CCOC(C)(C)C3)Oc3ccc(Br)cc32)N=C1N` (mixture of isomers) [Example 49 Isomeric mixture 1, 6-Bromo-2-(2,2-dimethyltetrahydro-2H-pyran-4-yl)-5′-methyl-spiro[chromane-4,2′-imidazole]-4′-amine], the IC50 was 10 nM.

In the case of `CC1=NC2(CC(C3CCOC(C)(C)C3)Oc3ccc(Br)cc32)N=C1N` (mixture of isomers) [Example 49 Isomeric mixture 2, 6-Bromo-2-(2,2-dimethyltetrahydro-2H-pyran-4-yl)-5′-methyl-spiro[chromane-4,2′-imidazole]-4′-amine], the “IC50 in TR-FRET assay” value was “inactive”.

As for `CC1=NC2(CC(C3CCOC(C)(C)C3)Oc3ccc(-c4cccc(Cl)c4)cc32)N=C1N` (racemic) [Example 50 Isomeric mixture 1, 6-(3-Chlorophenyl)-2-(2,2-dimethyltetrahydro-2H-pyran-4-yl)-5′-methylspiro[chroman-4,2′-imidazol]-4′-amine], the half-maximal inhibitory concentration (IC50) worked out at 100 nM.

Take `CC1=N[C@]2(N=C1N)c1cc(-c3cc(F)cc(C#N)c3)ccc1C[C@]21CC[C@@H](OC(F)F)CC1` (racemic) [Example 105, 3-[(1r,4r)-4″-Amino-4-(difluoromethoxy)-5″-methyl-3′H-dispiro[cyclohexane-1,2′-indene-1′,2″-imidazol]-6′-yl]-5-fluorobenzonitrile]: the midpoint of inhibition, the IC50, lay at 22 nM.

Consider `CC1=NC2(CC(C3CCCOC3)Oc3ccc(Br)cc32)N=C1N` (single isomer, unassigned) [Example 47 Isomer 1, 6-Bromo-5′-methyl-2-(tetrahydro-2H-pyran-3-yl)spiro[chromane-4,2′-imidazole]-4′-amine], for which the “IC50 in TR-FRET assay” value was “inactive”.

`CC1=NC2(CC(C3CCCOC3)Oc3ccc(Br)cc32)N=C1N` (single isomer, unassigned) [Example 47 Isomer 2, 6-Bromo-5′-methyl-2-(tetrahydro-2H-pyran-3-yl)spiro[chromane-4,2′-imidazole]-4′-amine] displayed a 50% inhibitory concentration (IC50) of 1030 nM.

Take `CC1=NC2(CC(C3CCCOC3)Oc3ccc(Br)cc32)N=C1N` (single isomer, unassigned) [Example 47 Isomer 3, 6-Bromo-5′-methyl-2-(tetrahydro-2H-pyran-3-yl)spiro[chromane-4,2′-imidazole]-4′-amine]: the “IC50 in TR-FRET assay” value was “inactive”.

In turn, `CC1=NC2(CC(C3CCCOC3)Oc3ccc(Br)cc32)N=C1N` (single isomer, unassigned) [Example 47 Isomer 4, 6-Bromo-5′-methyl-2-(tetrahydro-2H-pyran-3-yl)spiro[chromane-4,2′-imidazole]-4′-amine] showed an IC50 of 65300 nM.

As to `CC1=NC2(CC(C3CCCOC3)Oc3ccc(Br)cc32)N=C1N` (single isomer, unassigned) [Example 47 Isomer 5, 6-Bromo-5′-methyl-2-(tetrahydro-2H-pyran-3-yl)spiro[chromane-4,2′-imidazole]-4′-amine], inhibition was half-maximal at 19800 nM (IC50).

In turn, `CC1=NC2(CC(C3CCCOC3)Oc3ccc(Br)cc32)N=C1N` (single isomer, unassigned) [Example 47 Isomer 6, 6-Bromo-5′-methyl-2-(tetrahydro-2H-pyran-3-yl)spiro[chromane-4,2′-imidazole]-4′-amine] returned a half-maximal inhibitory concentration (IC50) of 1380 nM.

For the compound `CC1=NC2(CC(C3CCCOC3)Oc3ccc(Br)cc32)N=C1N` (single isomer, unassigned) [Example 47 Isomer 7, 6-Bromo-5′-methyl-2-(tetrahydro-2H-pyran-3-yl)spiro[chromane-4,2′-imidazole]-4′-amine], the “IC50 in TR-FRET assay” value is “inactive”.

The compound `CC1=NC2(CC(C3CCCOC3)Oc3ccc(Br)cc32)N=C1N` (single isomer, unassigned) [Example 47 Isomer 8, 6-Bromo-5′-methyl-2-(tetrahydro-2H-pyran-3-yl)spiro[chromane-4,2′-imidazole]-4′-amine] registered a 50% inhibitory concentration (IC50) of 8100 nM.

For the compound `CC1=NC2(CCOc3ccc(-c4cc(Cl)cc(Cl)c4)cc32)N=C1N` (centres unmarked) [Example 1, 6-(3,5-Dichlorophenyl)-5′-methylspiro[chroman-4,2′-imidazol]-4′-amine], inhibition was half-maximal at 157 nM (IC50).

`COc1ccc(OC)c(-c2ccc3c(c2)C2(CCO3)N=C(C)C(N)=N2)c1` (centres unmarked) [Example 5, 6-(2,5-Dimethoxyphenyl)-5′-methylspiro[chroman-4,2′-imidazol]-4′-amine]: the IC50 was found to be 3640 nM.

As to `COc1ccc(C)cc1-c1ccc2c(c1)C1(CCO2)N=C(C)C(N)=N1` (centres unmarked) [Example 10, 6-(2-Methoxy-5-methylphenyl)-5′-methylspiro[chroman-4,2′-imidazol]-4′-amine], the IC50 came out at 6850 nM.

`CC1=NC2(CCOc3ccc(-c4cc(C)ccc4F)cc32)N=C1N` (centres unmarked) [Example 11, 6-(2-Fluoro-5-methylphenyl)-5′-methylspiro[chroman-4,2′-imidazol]-4′-amine] displayed a half-inhibitory concentration (IC50) of 1980 nM.

As for `CC1=NC2(CCOc3ccc(NC(=O)c4ccc(Cl)cn4)cc32)N=C1N` (centres unmarked) [Example 13a, N-(4′-Amino-5′-methylspiro[chroman-4,2′-imidazole]-6-yl)-5-chloropicolinamide], the IC50 amounted to 1300 nM.

`CC#CCOc1ccc(C(=O)Nc2ccc3c(c2)C2(CCO3)N=C(C)C(N)=N2)nc1` (centres unmarked) [Example 13d, N-(4′-amino-5′-methylspiro[chroman-4,2′-imidazole]-6-yl)-5-(but-2-ynyloxy)picolinamide]: the IC50 was found to be 112 nM.

Take `CC1=NC2(CCOc3ccc(NC(=O)c4ccc(C)s4)cc32)N=C1N` (centres unmarked) [Example 13f, N-(4′-Amino-5′-methylspiro[chroman-4,2′-imidazole]-6-yl)-5-methylthiophene-2-carboxamide]: the IC50 is 6460 nM.

With `CC1=NC2(CCOc3ccc(NC(=O)c4ncc(Cl)cc4Cl)cc32)N=C1N` (centres unmarked) [Example 13i, N-(4′-Amino-5′-methylspiro[chroman-4,2′-imidazole]-6-yl)-3,5-dichloropicolinamide], the IC50 amounted to 560 nM.

In the case of `CC1=NC2(N=C1N)c1cc(-c3cccc(Cl)c3)ccc1CC21CCOCC1` (centres unmarked) [Example 26a, 6′-(3-Chlorophenyl)-5-methyl-2″,3″,5″,6″-tetrahydro-3′H-dispiro[imidazole-2,1′-indene-2′,4″-pyran]-4-amine], the IC50 is 100 nM.

In the case of `CC1=NC2(N=C1N)c1cc(-c3ccc(F)c(Cl)c3)ccc1CC21CCOCC1` (centres unmarked) [Example 26c, 6′-(3-Chloro-4-fluorophenyl)-5-methyl-2″,3″,5″,6″-tetrahydro-3′H-dispiro[imidazole-2,1′-indene-2′,4″-pyran]-4-amine], the 50% inhibitory concentration (IC50) worked out at 145 nM.

Regarding `CC1=NC2(N=C1N)c1cc(NC(=O)c3ccc(Cl)cn3)ccc1CC21CCC(F)(F)CC1` (centres unmarked) [Example 28d, N-(4″-Amino-4,4-difluoro-5″-methyl-3′H-dispiro[cyclohexane-1,2′-indene-1′,2″-imidazol]-6′-yl)-5-chloropyridine-2-carboxamide], the IC50 came to 408 nM.

Compound `CC1=NC2(N=C1N)c1cc(Br)ccc1CC21CCC1` (centres unmarked) [Example 54, 6′-Bromo-5″-methyl-3′H-dispiro[cyclobutane-1,2′-indene-1′,2″-imidazol]-4″-amine] registered an IC50 of 6610 nM.

As to `CC1=NC2(N=C1N)c1cc(C#CC(C)(C)C)ccc1CC21CCC1` (centres unmarked) [Example 59, 6′-(3,3-Dimethylbut-1-yn-1-yl)-5″-methyl-3′H-dispiro[cyclobutane-1,2′-indene-1′,2″-imidazol]-4″-amine], the IC50 came to 2610 nM.

The compound `CC#Cc1cncc(-c2ccc3c(c2)C2(N=C(C)C(N)=N2)[C@]2(CC[C@H](OC)CC2)C3)c1C` (some centres unmarked) [Example 63, (1r,4r)-4-Methoxy-5″-methyl-6′-[4-methyl-5-(prop-1-yn-1-yl)pyridin-3-yl]-3′H-dispiro[cyclohexane-1,2′-indene-1′,2″-imidazol]-4″-amine] yielded an IC50 of 89 nM.

Consider `CCC1=NC2(N=C1N)c1cc(Br)ccc1C[C@]21CC[C@@H](OC)CC1` (some centres unmarked) [Example 64, (1r,4r)-6′-Bromo-5″-ethyl-4-methoxy-3′H-dispiro[cyclohexane-1,2′-indene-1′,2″-imidazol]-4″-amine], for which the 50% inhibitory concentration (IC50) was determined as 401 nM.

Turning to `COCc1cc(F)cc(-c2ccc3c(c2)C2(N=C(C)C(N)=N2)[C@]2(CC[C@H](OC)CC2)C3)c1` (some centres unmarked) [Example 81, (1r,4r)-6′-[3-Fluoro-5-(methoxymethyl)phenyl]-4-methoxy-5″-methyl-3′H-dispiro[cyclohexane-1,2′-indene-1′,2″-imidazol]-4″-amine], the half-inhibitory concentration (IC50) was 23 nM.

`CO[C@H]1CC[C@]2(CC1)Cc1ccc(-c3cccc(F)c3F)cc1[C@@]21N=C(C)C(N)=N1` [Example 101] came in with an IC50 of 19.8 nM.

In turn, `CC1=NC2(N=C1N)c1cc(-c3cc(F)cc(F)c3)ccc1C[C@]21CC[C@@H](OC(F)F)CC1` (some centres unmarked) [Example 109, (1r,4r)-4-(Difluoromethoxy)-6′-(3,5-difluorophenyl)-5″-methyl-3′H-dispiro[cyclohexane-1,2′-indene-1′,2″-imidazol]-4″-amine] displayed an IC50 of 21 nM.

`CC#Cc1cncc(-c2ccc3c(c2)C2(N=C(C)C(N)=N2)[C@]2(CC[C@](C)(OC)CC2)C3)c1` (some centres unmarked) [Example 111, (1r,4r)-4-Methoxy-4,5″-dimethyl-6′-[5-(prop-1-yn-1-yl)pyridin-3-yl]-3′H-dispiro[cyclohexane-1,2′-indene-1′,2″-imidazol]-4″-amine] yielded an IC50 of 51 nM.

On to `CC1=NC2(N=C1N)c1cc(-c3cc(F)cc(C#N)c3)ccc1CC21CCC(=O)CC1` (centres unmarked) [Example 115, 3-(4″-Amino-5″-methyl-4-oxodispiro[cyclohexane-1,2′-[1H]indene-1′(3′H),2″-[2H]imidazol]-6′-yl)-5-fluorobenzonitrile], for which the IC50 worked out at 632 nM.

Values taken from patent US8865911B2, “Compounds and their use as BACE inhibitors” (Astrazeneca AB, priority 2010, dated 2014).
